Assay results published in PubChem BioAssay (NCI).
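In this assay, cells in 96-well plates receive the compound at five concentrations for 48 hours. Endpoints are linearly interpolated between the surrounding concentrations. GI50 is the concentration that inhibits growth by half. TGI marks complete inhibition of growth.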

Assays:
Test in all cases: DTP human tumour cell line panel, 48 h
RXF 393 renal = test system: RXF 393 renal
TK-10 renal = test system: TK-10 renal
NCI-H522 lung = test system: NCI-H522 lung
ACHN renal = test system: ACHN renal
SF-268 CNS = test system: SF-268 CNS
SNB-75 CNS = test system: SNB-75 CNS
PC-3 prostate = test system: PC-3 prostate
SW-620 colon = test system: SW-620 colon
MOLT-4 leukemia = test system: MOLT-4 leukemia
MDA-MB-435 = test system: MDA-MB-435
OVCAR-5 ovarian = test system: OVCAR-5 ovarian
786-0 renal = test system: 786-0 renal
SNB-19 CNS = test system: SNB-19 CNS
UACC-62 melanoma = test system: UACC-62 melanoma
UACC-257 melanoma = test system: UACC-257 melanoma
SF-539 CNS = test system: SF-539 CNS
BT-549 breast = test system: BT-549 breast
SN12C renal = test system: SN12C renal
COLO 205 colon = test system: COLO 205 colon
HCT-15 colon = test system: HCT-15 colon
A549 NSCLC = test system: A549 NSCLC
OVCAR-8 ovarian = test system: OVCAR-8 ovarian
HT29 colon = test system: HT29 colon
HOP-62 NSCLC = test system: HOP-62 NSCLC
UO-31 renal = test system: UO-31 renal
T-47D breast = test system: T-47D breast
OVCAR-3 ovarian = test system: OVCAR-3 ovarian
HOP-92 NSCLC = test system: HOP-92 NSCLC
NCI-H226 lung = test system: NCI-H226 lung
A498 renal = test system: A498 renal
SK-OV-3 ovarian = test system: SK-OV-3 ovarian
SK-MEL-5 melanoma = test system: SK-MEL-5 melanoma
NCI-H460 lung = test system: NCI-H460 lung
K-562 leukemia = test system: K-562 leukemia
SK-MEL-28 melanoma = test system: SK-MEL-28 melanoma
MCF7 breast = test system: MCF7 breast
RPMI-8226 leukemia = test system: RPMI-8226 leukemia
HCT-116 colon = test system: HCT-116 colon
DU-145 prostate = test system: DU-145 prostate
CAKI-1 renal = test system: CAKI-1 renal
U251 CNS = test system: U251 CNS
HCC-2998 colon = test system: HCC-2998 colon
MDA-MB-231 breast = test system: MDA-MB-231 breast
OVCAR-4 ovarian = test system: OVCAR-4 ovarian
EKVX NSCLC = test system: EKVX NSCLC
LOX IMVI melanoma = test system: LOX IMVI melanoma
IGROV1 ovarian = test system: IGROV1 ovarian
SF-295 CNS = test system: SF-295 CNS
SK-MEL-2 melanoma = test system: SK-MEL-2 melanoma
HS 578T breast = test system: HS 578T breast
NCI/ADR-RES ovarian = test system: NCI/ADR-RES ovarian
NCI-H23 lung = test system: NCI-H23 lung
KM12 colon = test system: KM12 colon
M14 melanoma = test system: M14 melanoma
CCRF-CEM leukemia = test system: CCRF-CEM leukemia

Work on `CC(=O)O[C@H]1[C@@H]2OC(=O)C3(CC3)C2C[C@H]2O[C@]2(C)CC/C=C(\C)CCC[C@@H]1C` (stereo not given in full) yielded a GI50 (RXF 393 renal) of 14.8 µM, a TGI (RXF 393 renal) of 37.7 µM and a GI50 (TK-10 renal) of 23.9 µM. The TGI (TK-10 renal) was 46.9 µM, the GI50 (NCI-H522 lung) was 21.1 µM and the TGI (NCI-H522 lung) was 48.4 µM. For the same compound, the GI50 (ACHN renal) was 21 µM, the TGI (ACHN renal) was 44.2 µM and the GI50 (SF-268 CNS) was 27.7 µM. It also gave a TGI (SF-268 CNS) of over 100 µM, a GI50 (SNB-75 CNS) of 38.1 µM and a TGI (SNB-75 CNS) of over 100 µM. For the same compound, the GI50 (PC-3 prostate) was 19 µM, the TGI (PC-3 prostate) was 49.6 µM and the GI50 (SW-620 colon) was 23.7 µM. The TGI (SW-620 colon) was 55.9 µM, the GI50 (MOLT-4 leukemia) was 18.1 µM and the TGI (MOLT-4 leukemia) was 41.3 µM. It also gave a GI50 (MDA-MB-435) of 24.2 µM, a TGI (MDA-MB-435) of 54.3 µM and a GI50 (OVCAR-5 ovarian) of 76.5 µM. For the same compound, the TGI (OVCAR-5 ovarian) was over 100 µM, the GI50 (786-0 renal) was 25.8 µM and the TGI (786-0 renal) was 92 µM. The GI50 (SNB-19 CNS) was 62.4 µM, the TGI (SNB-19 CNS) was over 100 µM and the GI50 (UACC-62 melanoma) was 17.1 µM. For the same compound, the TGI (UACC-62 melanoma) was 46.1 µM, the GI50 (UACC-257 melanoma) was 43.4 µM and the TGI (UACC-257 melanoma) was over 100 µM. It also gave a GI50 (SF-539 CNS) of 23.3 µM, a TGI (SF-539 CNS) of 50.8 µM and a GI50 (BT-549 breast) of 18.7 µM. It also gave a TGI (BT-549 breast) of 46.2 µM, a GI50 (SN12C renal) of 22.7 µM and a TGI (SN12C renal) of 49.7 µM. For the same compound, the GI50 (COLO 205 colon) was 34 µM, the TGI (COLO 205 colon) was over 100 µM and the GI50 (HCT-15 colon) was 26.8 µM. It also gave a TGI (HCT-15 colon) of 70 µM, a GI50 (A549 NSCLC) of 20.3 µM and a TGI (A549 NSCLC) of 46 µM. It also gave a GI50 (OVCAR-8 ovarian) of 27.8 µM, a TGI (OVCAR-8 ovarian) of over 100 µM and a GI50 (HT29 colon) of 36.8 µM. It also gave a TGI (HT29 colon) of over 100 µM, a GI50 (HOP-62 NSCLC) of 37.7 µM and a TGI (HOP-62 NSCLC) of over 100 µM. It also gave a GI50 (UO-31 renal) of 25.5 µM, a TGI (UO-31 renal) of 64.2 µM and a GI50 (T-47D breast) of 43.7 µM. For the same compound, the TGI (T-47D breast) was over 100 µM, the GI50 (OVCAR-3 ovarian) was 17.5 µM and the TGI (OVCAR-3 ovarian) was 32.9 µM. It also gave a GI50 (HOP-92 NSCLC) of 4.58 µM, a TGI (HOP-92 NSCLC) of 63 µM and a GI50 (NCI-H226 lung) of 24.1 µM. For the same compound, the TGI (NCI-H226 lung) was 66.5 µM, the GI50 (A498 renal) was 27.4 µM and the TGI (A498 renal) was over 100 µM. The GI50 (SK-OV-3 ovarian) was 80.5 µM, the TGI (SK-OV-3 ovarian) was over 100 µM and the GI50 (SK-MEL-5 melanoma) was 14.8 µM. The TGI (SK-MEL-5 melanoma) was 29 µM, the GI50 (NCI-H460 lung) was 24.6 µM and the TGI (NCI-H460 lung) was 58.2 µM. For the same compound, the GI50 (K-562 leukemia) was 14.3 µM, the TGI (K-562 leukemia) was 37.7 µM and the GI50 (SK-MEL-28 melanoma) was 36.7 µM. It also gave a TGI (SK-MEL-28 melanoma) of over 100 µM, a GI50 (MCF7 breast) of 37.1 µM and a TGI (MCF7 breast) of over 100 µM. It also gave a GI50 (RPMI-8226 leukemia) of 23.8 µM, a TGI (RPMI-8226 leukemia) of 55.2 µM and a GI50 (HCT-116 colon) of 15.7 µM. For the same compound, the TGI (HCT-116 colon) was 37.3 µM, the GI50 (DU-145 prostate) was 19.6 µM and the TGI (DU-145 prostate) was 39.1 µM. The GI50 (CAKI-1 renal) was 19.8 µM, the TGI (CAKI-1 renal) was 42.1 µM and the GI50 (U251 CNS) was 22.6 µM. For the same compound, the TGI (U251 CNS) was 49.9 µM, the GI50 (HCC-2998 colon) was 19.8 µM and the TGI (HCC-2998 colon) was 50.9 µM. The GI50 (MDA-MB-231 breast) was 20.5 µM, the TGI (MDA-MB-231 breast) was 48.7 µM and the GI50 (OVCAR-4 ovarian) was 38 µM. The TGI (OVCAR-4 ovarian) was over 100 µM, the GI50 (EKVX NSCLC) was 30.1 µM and the TGI (EKVX NSCLC) was over 100 µM. For the same compound, the GI50 (LOX IMVI melanoma) was 15.8 µM, the TGI (LOX IMVI melanoma) was 46.2 µM and the GI50 (IGROV1 ovarian) was 16.4 µM. The TGI (IGROV1 ovarian) was 45.2 µM, the GI50 (SF-295 CNS) was 40.2 µM and the TGI (SF-295 CNS) was over 100 µM. The GI50 (SK-MEL-2 melanoma) was 19.5 µM, the TGI (SK-MEL-2 melanoma) was 49.5 µM and the GI50 (HS 578T breast) was 19 µM. For the same compound, the TGI (HS 578T breast) was 50.2 µM, the GI50 (NCI/ADR-RES ovarian) was 23.3 µM and the TGI (NCI/ADR-RES ovarian) was 67.5 µM. The GI50 (NCI-H23 lung) was 22.1 µM, the TGI (NCI-H23 lung) was over 100 µM and the GI50 (KM12 colon) was 18.4 µM. It also gave a TGI (KM12 colon) of 36.5 µM, a GI50 (M14 melanoma) of 19.1 µM and a TGI (M14 melanoma) of 43.6 µM. For the same compound, the GI50 (CCRF-CEM leukemia) was 17.2 µM and the TGI (CCRF-CEM leukemia) was 37.8 µM.
